Test results taken from the OligoGym collection.
HELM strings list units from the 5' end as sugar, base in round brackets, then linkage (d deoxyribose, r ribose, m 2'-O-methyl, p phosphodiester). Strings are as the collection lists them; they lack the last nucleoside at the 3' end of the tested compound. [moe] = 2'-O-(2-methoxyethyl) (MOE); [sp] = phosphorothioate linkage; [m5C] = 5-methylcytosine

These substances were tested against APP (assay: mouse, dose not given). Conditions: ASO.
Substance “RNA1{[moe]([m5C])[sp].[moe](T)p.[moe](T)p.[moe]([m5C])p.[moe]([m5C])[sp].d([m5C])[sp].d(A)[sp].d(T)[sp].d(T)[sp].d([m5C])[sp].d(T)[sp].d([m5C])[sp].d(T)[sp].d([m5C])[sp].d(A)[sp].[moe](T)p.[moe](G)p.[moe](A)[sp].[moe]([m5C])}$$$$ (last 3' nucleoside missing)” has a 3 h FOB score of 0.25 score 0-7.
Substance “RNA1{[moe](G)[sp].[moe](A)p.[moe](A)p.[moe]([m5C])p.[moe](T)[sp].d([m5C])[sp].d(G)[sp].d(A)[sp].d(A)[sp].d([m5C])[sp].d([m5C])[sp].d(A)[sp].d([m5C])[sp].d([m5C])[sp].d(T)[sp].[moe]([m5C])p.[moe](T)p.[moe](T)[sp].[moe]([m5C])}$$$$ (last 3' nucleoside missing)” has a 3 h FOB score of 1 score 0-7.
In the case of “RNA1{[moe](G)[sp].[moe]([m5C])p.[moe](T)p.[moe](A)p.[moe]([m5C])[sp].d(A)[sp].d(A)[sp].d(T)[sp].d(T)[sp].d(A)[sp].d(T)[sp].d([m5C])[sp].d([m5C])[sp].d(A)[sp].d([m5C])[sp].[moe](A)p.[moe](T)p.[moe](G)[sp].[moe](G)}$$$$ (last 3' nucleoside missing)”, the 3 h FOB score is reported as 0 score 0-7.
With “RNA1{[moe](G)[sp].[moe]([m5C])p.[moe](G)p.[moe]([m5C])p.[moe](A)[sp].d(T)[sp].d(T)[sp].d(T)[sp].d(A)[sp].d([m5C])[sp].d(T)[sp].d(A)[sp].d(G)[sp].d([m5C])[sp].d(A)[sp].[moe]([m5C])p.[moe](A)p.[moe](T)[sp].[moe](T)}$$$$ (last 3' nucleoside missing)” the 3 h FOB score was 1.67 score 0-7.
“RNA1{[moe](G)[sp].[moe]([m5C])p.[moe](A)p.[moe](G)p.[moe](A)[sp].d(T)[sp].d([m5C])[sp].d(A)[sp].d(T)[sp].d(A)[sp].d(T)[sp].d(A)[sp].d([m5C])[sp].d(T)[sp].d(A)[sp].[moe](T)p.[moe](A)p.[moe]([m5C])[sp].[moe](A)}$$$$ (last 3' nucleoside missing)” showed a 3 h FOB score of 0 score 0-7.
“RNA1{[moe]([m5C])[sp].[moe](A)p.[moe](T)p.[moe](G)p.[moe]([m5C])[sp].d(G)[sp].d([m5C])[sp].d(T)[sp].d([m5C])[sp].d(A)[sp].d(T)[sp].d(A)[sp].d(A)[sp].d(A)[sp].d(T)[sp].[moe]([m5C])p.[moe](A)p.[moe]([m5C])[sp].[moe](A)}$$$$ (last 3' nucleoside missing)” gave a 3 h FOB score of 3.5 score 0-7.
With “RNA1{[moe](T)[sp].[moe]([m5C])p.[moe](A)p.[moe]([m5C])p.[moe](A)[sp].d(G)[sp].d(T)[sp].d(T)[sp].d(T)[sp].d(A)[sp].d([m5C])[sp].d([m5C])[sp].d([m5C])[sp].d([m5C])[sp].d(A)[sp].[moe](A)p.[moe](G)p.[moe]([m5C])[sp].[moe](T)}$$$$ (last 3' nucleoside missing)” the 3 h FOB score was 0 score 0-7.
“RNA1{[moe]([m5C])[sp].[moe]([m5C])[sp].[moe]([m5C])p.[moe](A)p.[moe]([m5C])[sp].d(T)[sp].d(T)[sp].d([m5C])[sp].d([m5C])[sp].d([m5C])[sp].d(A)[sp].d(T)[sp].d(T)[sp].d([m5C])[sp].d(T)[sp].[moe](G)p.[moe](G)p.[moe](A)[sp].[moe]([m5C])}$$$$ (last 3' nucleoside missing)” showed a 3 h FOB score of 0 score 0-7.
Work on “RNA1{[moe](A)[sp].[moe]([m5C])p.[moe](T)p.[moe](G)p.[moe](A)[sp].d(T)[sp].d(T)[sp].d(A)[sp].d(T)[sp].d([m5C])[sp].d(A)[sp].d(A)[sp].d(A)[sp].d(T)[sp].d(T)[sp].[moe]([m5C])p.[moe]([m5C])p.[moe](G)[sp].[moe](G)}$$$$ (last 3' nucleoside missing)” yielded a 3 h FOB score of 0.25 score 0-7.
In the case of “RNA1{[moe](T)[sp].[moe](G)p.[moe](G)p.[moe]([m5C])p.[moe](T)[sp].d(T)[sp].d(A)[sp].d(T)[sp].d(G)[sp].d(A)[sp].d(T)[sp].d([m5C])[sp].d(T)[sp].d(A)[sp].d(T)[sp].[moe](A)p.[moe]([m5C])p.[moe](A)[sp].[moe]([m5C])}$$$$ (last 3' nucleoside missing)”, the 3 h FOB score is reported as 1 score 0-7.
Substance “RNA1{[moe](T)[sp].[moe](G)[sp].[moe](T)[sp].[moe]([m5C])[sp].[moe](A)[sp].d([m5C])[sp].d(T)[sp].d(T)[sp].d(T)[sp].d([m5C])[sp].d(T)[sp].d(T)[sp].d([m5C])[sp].d(A)[sp].d(G)[sp].[moe]([m5C])[sp].[moe]([m5C])[sp].[moe](A)[sp].[moe](G)}$$$$ (last 3' nucleoside missing)” has a 3 h FOB score of 6 score 0-7.
Work on “RNA1{[moe](G)[sp].[moe](T)p.[moe](T)p.[moe](G)p.[moe](T)[sp].d(A)[sp].d(G)[sp].d(G)[sp].d(A)[sp].d(A)[sp].d([m5C])[sp].d(T)[sp].d([m5C])[sp].d(G)[sp].d(A)[sp].[moe](A)p.[moe]([m5C])p.[moe]([m5C])[sp].[moe](A)}$$$$ (last 3' nucleoside missing)” yielded a 3 h FOB score of 1 score 0-7.
“RNA1{[moe](T)[sp].[moe](G)p.[moe](T)p.[moe](G)p.[moe](A)[sp].d(T)[sp].d(T)[sp].d(T)[sp].d([m5C])[sp].d(A)[sp].d([m5C])[sp].d(T)[sp].d(A)[sp].d(A)[sp].d([m5C])[sp].[moe]([m5C])p.[moe](G)p.[moe](G)[sp].[moe]([m5C])}$$$$ (last 3' nucleoside missing)” was tested, and the 3 h FOB score was 1.25 score 0-7.
For “RNA1{[moe](G)[sp].[moe]([m5C])p.[moe](T)p.[moe](T)p.[moe](A)[sp].d([m5C])[sp].d(A)[sp].d(T)[sp].d([m5C])[sp].d(A)[sp].d(T)[sp].d(T)[sp].d(T)[sp].d(T)[sp].d([m5C])[sp].[moe](T)p.[moe](T)p.[moe](G)[sp].[moe]([m5C])}$$$$ (last 3' nucleoside missing)”, the 3 h FOB score was 0 score 0-7.
“RNA1{[moe](T)[sp].[moe]([m5C])p.[moe](T)p.[moe](T)p.[moe](G)[sp].d(A)[sp].d(T)[sp].d(A)[sp].d(T)[sp].d(T)[sp].d(T)[sp].d(G)[sp].d(T)[sp].d([m5C])[sp].d(A)[sp].[moe](A)p.[moe]([m5C])p.[moe]([m5C])[sp].[moe]([m5C])}$$$$ (last 3' nucleoside missing)” was tested, and the 3 h FOB score was 5 score 0-7.
“RNA1{[moe](A)[sp].[moe]([m5C])p.[moe](T)p.[moe]([m5C])p.[moe](A)[sp].d([m5C])[sp].d(A)[sp].d([m5C])[sp].d(A)[sp].d([m5C])[sp].d(T)[sp].d(G)[sp].d(T)[sp].d(T)[sp].d(T)[sp].[moe]([m5C])p.[moe](A)p.[moe](A)[sp].[moe](G)}$$$$ (last 3' nucleoside missing)” gave a 3 h FOB score of 2.67 score 0-7.
In the case of “RNA1{[moe](A)[sp].[moe](G)p.[moe]([m5C])p.[moe](A)p.[moe](T)[sp].d([m5C])[sp].d(T)[sp].d(T)[sp].d(T)[sp].d(T)[sp].d(A)[sp].d([m5C])[sp].d(T)[sp].d(A)[sp].d(T)[sp].[moe]([m5C])p.[moe](T)p.[moe](G)[sp].[moe]([m5C])}$$$$ (last 3' nucleoside missing)”, the 3 h FOB score is reported as 0.67 score 0-7.
Substance “RNA1{[moe](T)[sp].[moe]([m5C])p.[moe](A)p.[moe](T)p.[moe]([m5C])[sp].d(A)[sp].d([m5C])[sp].d([m5C])[sp].d(A)[sp].d(T)[sp].d(A)[sp].d([m5C])[sp].d(A)[sp].d(T)[sp].d(A)[sp].[moe](G)p.[moe]([m5C])p.[moe](A)[sp].[moe](G)}$$$$ (last 3' nucleoside missing)” has a 3 h FOB score of 0.67 score 0-7.
Work on “RNA1{[moe]([m5C])[sp].[moe](G)p.[moe](G)p.[moe]([m5C])p.[moe](A)[sp].d(G)[sp].d(T)[sp].d(T)[sp].d(T)[sp].d(A)[sp].d(A)[sp].d(A)[sp].d(A)[sp].d(T)[sp].d(T)[sp].[moe]([m5C])p.[moe](T)p.[moe]([m5C])[sp].[moe](T)}$$$$ (last 3' nucleoside missing)” yielded a 3 h FOB score of 0 score 0-7.
“RNA1{[moe](T)[sp].[moe](G)p.[moe](G)p.[moe](T)p.[moe]([m5C])[sp].d(A)[sp].d(T)[sp].d([m5C])[sp].d(A)[sp].d(A)[sp].d([m5C])[sp].d(T)[sp].d(T)[sp].d(T)[sp].d(T)[sp].[moe](T)p.[moe](A)p.[moe](G)[sp].[moe](T)}$$$$ (last 3' nucleoside missing)” was tested, and the 3 h FOB score was 0 score 0-7.
In the case of “RNA1{[moe](T)[sp].[moe]([m5C])p.[moe](A)p.[moe](T)p.[moe](A)[sp].d(T)[sp].d(T)[sp].d(G)[sp].d(T)[sp].d([m5C])[sp].d(T)[sp].d(T)[sp].d([m5C])[sp].d(A)[sp].d(A)[sp].[moe](T)p.[moe](G)p.[moe](T)[sp].[moe](G)}$$$$ (last 3' nucleoside missing)”, the 3 h FOB score is reported as 2 score 0-7.
“RNA1{[moe](G)[sp].[moe](T)p.[moe](T)p.[moe]([m5C])p.[moe](A)[sp].d([m5C])[sp].d(A)[sp].d(G)[sp].d(T)[sp].d(T)[sp].d(T)[sp].d(A)[sp].d([m5C])[sp].d([m5C])[sp].d([m5C])[sp].[moe]([m5C])p.[moe](A)p.[moe](A)[sp].[moe](G)}$$$$ (last 3' nucleoside missing)” showed a 3 h FOB score of 3.25 score 0-7.
“RNA1{[moe]([m5C])[sp].[moe]([m5C])p.[moe](A)p.[moe](T)p.[moe]([m5C])[sp].d(T)[sp].d(T)[sp].d([m5C])[sp].d(A)[sp].d([m5C])[sp].d(T)[sp].d(T)[sp].d([m5C])[sp].d(A)[sp].d(G)[sp].[moe](A)p.[moe](G)p.[moe](A)[sp].[moe](T)}$$$$ (last 3' nucleoside missing)” was tested, and the 3 h FOB score was 0.5 score 0-7.
“RNA1{[moe](A)[sp].[moe]([m5C])p.[moe](G)p.[moe](G)p.[moe](A)[sp].d([m5C])[sp].d(T)[sp].d(T)[sp].d(T)[sp].d(T)[sp].d(T)[sp].d(T)[sp].d([m5C])[sp].d(T)[sp].d(T)[sp].[moe]([m5C])p.[moe](T)p.[moe](T)[sp].[moe](G)}$$$$ (last 3' nucleoside missing)” gave a 3 h FOB score of 0 score 0-7.
For “RNA1{[moe](G)[sp].[moe]([m5C])p.[moe](A)p.[moe](T)p.[moe]([m5C])[sp].d(A)[sp].d(G)[sp].d(G)[sp].d([m5C])[sp].d(T)[sp].d(A)[sp].d(A)[sp].d([m5C])[sp].d(A)[sp].d(A)[sp].[moe](G)p.[moe](T)p.[moe](T)[sp].[moe]([m5C])}$$$$ (last 3' nucleoside missing)”, the 3 h FOB score was 4 score 0-7.
